Experimental data reported in patent US6436310B1, “Deicing solution” (Sears Petroleum & Transport Corporation, priority 1998, dated 2002).
Read-outs that look alike come from different tables or passages of the source.

Experiments:
[1] = Freezing point of simple carbohydrates with 15% magnesium chloride; assay type: physicochemical; settings: 15% MgCl2
Experimental: There is available commercially a wide range of carbohydrates with varying carbohydrate compositions. An evaluation was conducted using simple sugars, disaccharides and polysaccharides in an attempt to determine the effect of molecular weight and solute concentration upon freezing point.

[2] = calculated from data in SHRP H-205.2; cited from earlier work
Rats = settings: cited from earlier work
[3] = SHRP H-205.2 Test Method for Ice Melting of Liquid Deicing Chemicals; settings: 25° F. (−4° C.)
Experimental: Fraction E was also examined for ice melting characteristics at 25° F.

[4] = aqueous solution

Row | Compound | Lbs weight ice melted per lb weight of inorganic salt [2] [Lbs per lb] | Oral LD 50 (Rats) (Rats) [mg/kg] | further results
1 | OC[C@H]1O[C@@H](O[C@H]2[C@H](O)[C@@H](O)C(O)O[C@@H]2CO)[C@H](O)[C@@H](O)[C@H]1O (some centres unmarked) [Lactose] |  |  | comparison in reducing freezing point [1]: somewhat better than maltose
2 | [Cl-].[Na+] [Sodium Chloride, sodium chloride] | 7.5 | 3000 | 
3 | [Cl-].[Cl-].[Mg+2] [Mg Cl2, magnesium chloride] |  |  | Lbs weight ice melted per lb weight of inorganic salt [3]: 16.9 Lbs per lb
4 | CC(=O)[O-].[Na+] [Sodium acetate, sodium acetate] |  | 3550 | solids content at the eutectic point [4]: 23%
5 | [Ca+2].[Cl-].[Cl-] [Ca Cl2, calcium chloride] | 7.3 |  | 
6 | CC(=O)[O-].[K+] [Potassium acetate, potassium acetate] |  | 3250 | 
